Assay results taken from patent publication US20240342128A1, “IMMUNE MEMORY INDUCTION BY PLATINUM BASED COMPOUNDS” (AKAMARA THERAPEUTICS, INC., priority 2016, published 2024).

Columns and labels:
4T1 tumors [1] = test: tumor regression in immunocompetent versus immune-deficient mice strains; assay type: in vivo, mice (Balb/c, Jh−/−, SCID); settings: FIG. 4
Excerpt: To understand the role of immune components in tumor regression following treatment with Compound 1, tumor regression was studied in three different mice strains. These included immunocompetent mice (Balb/c); B cell-deficient mice (designated Jh^−/−) and mice lacking functional B cells and T cells (SCID). 4T1 cells were subcutaneously implanted in the three strains mentioned and when tumors reached an average volume of 100 mm^3, they were divided into two groups. One group was kept as control and the other treated with Compound 1 and the tumor volume in all the animals were recorded.

4T1 tumors [2] = test: relative mRNA expression (qRT-PCR) of immune genes in harvested 4T1 tumors; assay type: in vivo; settings: 4T1 tumors in Balb/c mice, one cycle of treatment, FIG. 1A
Protocol: 4T1 cells were subcutaneously implanted in Balb/c mice to generate tumors. When tumors reached an average volume of 100 mm^3, they were treated with either Compound 1 or Oxaliplatin. After one cycle of treatment, following regression, tumors were harvested and a portion of the tumor from each group was used for total RNA isolation. The tumor infiltrating immune cells were evaluated for relative mRNA expression levels of immune activating and immune suppressive genes (Denkert et al., Clin Oncol. 2015; 33(9):983-91).

splenic B cells [3] = test: splenic B cells cultured with treatment conditioned media (TCM) from treated 4T1 cells, relative mRNA expression; assay type: cell-based, mice
Protocol: 4T1 cells were seeded in cell culture dishes in RPMI-1640 media containing 10% FBS. The cells were treated with Oxaliplatin and Compound 1 when they reached 60% confluence. Following a transient treatment of 6 hours, the media was removed and supplemented with fresh culture media. Cells were incubated at 37° C. for 24 hours. After 24 hours, the treatment conditioned media (TCM) was collected from each treatment and divided into two parts. One part was passed through 0.1 micron PES filters to obtain tumor conditioned media free of cell debris, with nucleic acids intact; while the other was passed through 0.1 micron Nylon membrane filters, where the nucleic acids would stick and get removed. The filtration process through Nylon membrane was repeated twice to remove all nucleic acids from the TCM. The harvested TCMs were used immediately for conditioning of B cells, isolated from naïve mice splenocytes using the EasySep Stem Cell B cell isolation kit as per manufacturers protocol. The B cells were incubated with conditioned media and harvested after 24 hours of incubation. RNA was isolated from the B cells and used for relative mRNA expression level evaluation of genes involved in B cell differentiation and TLR activation.

4T1 cells [4] = test: immune memory study: re-implantation of 4T1 cells; assay type: in vivo, Balb/c mice
Protocol: 4T1 cells were subcutaneously implanted in Balb/c mice to generate tumors. When tumors reached an average volume of 100 mm^3, they were treated with Compound 1. Two groups of Balb/c mice (non-tumor bearing) were either treated with Compound 1 or saline (designated Group 1 and 2 respectively; FIG. 3A).
Immune memory cells are poised to rapidly expand and induce effector functions upon recurrence, while existing in a functionally quiescent state. In order to check this hypothesis, we examined immune memory in Compound 1 treated tumors. […] The results also rule out the effect of any residual drug inducing tumor memory in non-tumor bearing animals.

splenic B cells [5] = test: relative mRNA expression of B cell differentiation and TLR activation genes in isolated splenic B cells; assay type: in vivo; settings: B cells from tumor bearing mice treated (Group 3), normalized to Group 1, FIG. 6B
Protocol: Mice splenic B cells were isolated from Group 1 and Group 3 mice, described in Example 3.
Spleen was harvested from mice (n=3) and minced into small pieces in RPMI-1640 basal media. The pieces were placed on top of a 40 mesh membrane and crushed with the back of a syringe and the single cell suspension was collected onto a 50 ml tube. The single cell suspension was washed twice with PBS to remove debris by centrifuging at 2000 rpm. Splenocytes were counted using haemocytometer and 100 million splenocytes were resuspended in 1 ml of isolation buffer (2% FBS, […] in DPBS) and transferred to a 5 ml polysterene tube. The B cells were isolated from splenocytes using the EasySep Stem Cell B cell isolation kit as per manufacturers protocol. Ten million B cells were used for RNA isolation, followed by relative mRNA expression levels of genes involved in B cell differentiation and TLR activation were evaluated.

4T1 cells [6] = test: ds-RNA detection by propidium iodide staining after DNase/RNase treatment; assay type: cell-based
Protocol: 4T1 cells were grown on a coverslip in RPMI media to 70-80% confluency. The cells were treated with Compound 1 or Oxaliplatin. Detection of ds-RNA was a modification of protocol described by Kantarjian et al. (Kantarjian et al., Blood. 1985 July; 66(1):39-46). Following treatment, the coverslips were washed in phosphate-buffered saline (PBS) and fixed in 70% ice-cold ethanol. Cells were then washed with saline and treated with 1 mg/mL of DNase in 0.25 mol/L sucrose, 5 mmol/L MgCl2, and 20 mmol/L Tris-HCL (pH 6.5) at 37° C. for 60 min. In addition, another set of cells, subjected to Compound 1 or Oxaliplatin treatment were treated with RNase at a concentration of 5 mg/mL at 37° C. for 60 minutes. After another wash in PBS, the coverslips were exposed to propidium iodide at a final concentration of 50 μg/ml, diluted in a solution containing 10 mmol/L Tris-HCl (pH 7.4) and 5 mmol/L MgCl2. Stained cells were kept at 4° C. prior to microscopic analysis using a NIKON epi-fluorescence microscope using excitation wavelengths of 480 nm and emission wavelengths of 590 nm.

T cell receptor (TCR) = test: activation of TCR; settings: in comparison to Oxaliplatin, FIG. 2A
LLC tumors = test: immunohistochemical analysis of tumor sections, murine NSCLC tumor model; assay type: in vivo; settings: LLC tumors in C57/BL6 mice, two cycles of treatment, FFPE sections, FIG. 1B
Protocol: Murine NSCLC tumor model was generated by subcutaneously implanting LLC cells in C57/BL6 mice. Treatment with either Compound 1 or Oxaliplatin was initiated when average tumor volume reached 100 mm^3. Following two cycles of treatment, tumors were harvested and a portion fixed in formalin. FFPE sections were generated from the fixed tumors and immunohistochemical analysis of tumor sections was carried out for both T and B-cells.

CD8+ T cells in tumors = test: infiltration of cytotoxic CD8+ T-cells in treated tumors; assay type: in vivo; settings: FIG. 2B

In the case of `CC(C)CCC[C@@H](C)[C@H]1CCC2C3CC=C4C[C@@H](OCCN(CC(=O)[O-])CC(=O)[O][Pt+]5[NH][C@@H]6CCCC[C@H]6[NH]5)CC[C@]4(C)C3CC[C@@]21C` (stereo partly drawn) [Compound 1], the “tumor regression in mice lacking immune cells” value (4T1 tumors [1]; 4T1 tumors in B cell-deficient (Jh−/−) and SCID mice, growth similar to control mice) is reported as “Tumors do not regress”, the “tumor regression in immunocompetent mice” value (4T1 tumors [1]; 4T1 tumors in Balb/c mice) is reported as “causes tumor regression only in immunocompetent mice” and the “IGKC mRNA levels in tumors” value (4T1 tumors [2]) is reported as “significant increase in IGKC mRNA levels”. The “B cell differentiation markers and TLR activation markers (relative mRNA)” value (splenic B cells [3]; TCM with nucleic acids intact (PES filter), 24 hours incubation, FIG. 7B) was “substantially increased”, the “relative level of B cell differentiation and TLR activation markers, nucleic acid depleted TCM” value (splenic B cells [3]; nucleic acids removed from TCM (Nylon membrane filter), FIG. 7C) was “substantially reduced” and the “tumor growth after implantation of 4T1 cells in treated non-tumor bearing mice” value (4T1 cells [4]; Group 1: non-tumor bearing Balb/c mice treated, similar to saline treated mice (Group 2), FIG. 3C) was “led to the growth of tumors”. For the same compound, the “tumor growth upon re-implantation of cancer cells (immune memory)” value (4T1 cells [4]; Group 3: animals that had previously undergone tumor regression with treatment, FIG. 3B) was “no tumor growth was observed upon re-implantation of cancer cells”, the “IGKC mRNA levels in splenic B cells” value (splenic B cells [5]) was “significant increase in IGKC mRNA levels” and the “expression of TLRs and CD80 in splenic B cells” value (splenic B cells [5]) was “elevated expression of TLRs and CD80”. The “relative fluorescent intensity per field (dsRNA amount)” value (4T1 cells [6]; DNase treated samples, propidium iodide stain, FIG. 5C) was “enhancement of relative fluorescent intensity per field”, the “stability of RNA adducts” value (4T1 cells [6]; compared to Oxaliplatin) was “more stable RNA adducts” and the “activation of TCR” value (T cell receptor (TCR)) was “substantial activation of TCR”. For the same compound, the “B220 level by immunohistochemistry” value (LLC tumors) was “elevated levels”, the “IGKC level by immunohistochemistry” value (LLC tumors) was “elevated levels” and the “infiltration of cytotoxic T cells (CD8+ T cells) in tumors” value (CD8+ T cells in tumors) was “infiltration of cytotoxic T cells”.
